Laboratory results: US20060199835A1, “Neuroprotective and anti-proliferative compounds” (priority 2004, published 2006)

Assays:
Assay type in all cases: cell-based
[1] = test system: Human lymphoma jurkat cells; assay: Killing of cultured Jurkats with and without anti-Fas (propidium iodide, Facs); conditions: 19 hours
Experimental: Jurkats are a T-cell derived lymphoma cell line which expresses both FAS receptor and Fas-L. These cells, however, are only mildly sensitive to Fas-L/anti-Fas induced apoptosis. Select compounds were tested for their ability to kill jurkats. Additionally, we investigated the ability of select compounds to sensitize jurkats to anti-Fas mediated apoptosis.
Human lymphoma jurkat cells were cultured in suspension in 24 well plates. Jurkat cell were treated with test compounds either alone or in the presence of suboptimal doses of anti-Fas antibody. […] Cells were incubated with propidium iodide and the percentage of cells that incorporated the stain was counted by Facs.

[2] = test system: Human prostate DU145 cells; assay: Killing of DU145 prostate cancer cells (Alamar Blue, 7 day treatment)
Experimental: Prostate cancer is often resistant to traditional chemotherapies. DU145 is representative prostated cancer cell line. DU145 cells were cultured in the presence of various concentrations of compound 136. Compound 136 kills 100% of the cells at 10 μM, with an IC50 of approximately 7 μM.
Human prostate DU145 cells were cultured in 96 well dishes. Cells were treated with various concentrations of test compounds for 7 days. Media was then removed and replaced with fresh media containing Alamar Blue. The cells were incubated for a further 4 hours and Alamar blue and conversion was assessed by fluorescence. Compound effectiveness was determined by assessing the reduction in Alamar blue bioconversion following 7 day treatment.

Human lung H460 cells = assay: Killing of H460 cells (Alamar Blue, 24 hour treatment)
Experimental: H460 is representative of a […] cancer cell line.
Human lung H460 cells (7000 cells/well) were cultured in 96 well dishes. Cells were treated with various concentrations of test compounds for 24 hours. Media was then removed and replaced with fresh media containing Alamar Blue. The cells were incubated for a further 4 hours and Alamar blue and conversion was assessed by fluorescence. Compound effectiveness was determined by assessing the reduction in Alamar blue bioconversion following 24 hour treatment.

[3] = Dose 0.3, with anti-Fas (5 ng/mL)
[4] = Dose 1, with anti-Fas (5 ng/mL)
[5] = Dose 3, with anti-Fas (5 ng/mL)
[6] = Dose 10, with anti-Fas (5 ng/mL)
[7] = Dose 30, with anti-Fas (5 ng/mL)

3-(3-(amidinothio)propyl)indol-1-yl)-4-(5-benzyloxy-1-methylindol-3-yl)-4-pyrrole-2,5-dione [Example 168]
Survival % Without Anti-Fas ([1]; Dose 0.3 (μM)): 91% | Survival % With Anti-Fas [1, 3]: 49% | Survival % Without Anti-Fas ([1]; Dose 1 (μM)): 89% | Survival % With Anti-Fas [1, 4]: 49% | Survival % Without Anti-Fas ([1]; Dose 3 (μM)): 46% | Survival % With Anti-Fas [1, 5]: 1% | Survival % Without Anti-Fas ([1]; Dose 10 (μM)): 1% | Survival % With Anti-Fas [1, 6]: 0% | Survival % Without Anti-Fas ([1]; Dose 30 (μM)): 0% | Survival % With Anti-Fas [1, 7]: 0%

CN(C)CCCn1cc(C2=C(n3ccc4ccccc43)C(=O)NC2=O)c2cc(OCc3ccccc3)ccc21 [Example 136, 3-(5-benzyloxy-1-(3-dimethylaminopropyl)indol-3-yl)-4-(indol-1-yl)-pyrrole-2,5-dione]
cells killed ([2]; 10 μM): 100% | IC50 ([2]; Homo sapiens, DU-145, 168 h, 7 days of treatment): ~7 µM

N=C(N)SCCCn1c2ccccc2c2c3c(n4c5ccccc5cc4c21)C(=O)NC3=O [Example 145]
Survival % Without Anti-Fas ([1]; Dose 3 (μM)): 93% | Survival % With Anti-Fas [1, 5]: 35% | Survival % Without Anti-Fas ([1]; Dose 10 (μM)): 11%

Cc1cn(C2=C(c3cn(CCCSC(=N)N)c4ccccc34)C(=O)NC2=O)c2ccccc12 [Example 146, 3-(3-((amidiothio)propyl)indol-3-yl)-4-(3-methylindol-1-yl)-pyrrole-2,5-dione]
Survival % Without Anti-Fas ([1]; Dose 3 (μM)): >90% | Survival % With Anti-Fas [1, 5]: 20% | Survival % Without Anti-Fas ([1]; Dose 10 (μM)): 0%

N=C(N)SCCCn1cc(C2=C(n3ccc4cc(OCc5ccccc5)ccc43)C(=O)NC2=O)c2ccccc21 [Example 147, 3-(3-((amidiothio)propyl)indol-3-yl)-4-(5-benzyloxyindol-1-yl)-pyrrole-2,5-dione]
Survival % Without Anti-Fas ([1]; Dose 3 (μM)): >90% | Survival % With Anti-Fas [1, 5]: 20% | Survival % Without Anti-Fas ([1]; Dose 10 (μM)): 0%

N=C(N)SCCCn1cc(C2=C(n3ccc4ccccc43)C(=O)NC2=O)c2cc(OCc3ccccc3)ccc21 [Example 148, 3-(3-((amidiothio)propyl)-5-benzyloxyindol-3-yl)-4-(indol-1-yl)-pyrrole-2,5-dione]
Survival % Without Anti-Fas ([1]; Dose 3 (μM)): >90% | Survival % Without Anti-Fas ([1]; Dose 10 (μM)): 0% | Survival % With Anti-Fas [1, 6]: 20%

Cc1cn(C2=C(c3cn(CCCSC(=N)N)c4ccc(OCc5ccccc5)cc34)C(=O)NC2=O)c2ccccc12 [Example 149, 3-(3-((amidiothio)propyl)-5-benzyloxyindol-3-yl)-4-(3-methylindol-1-yl)-pyrrole-2,5-dione]
Survival % Without Anti-Fas ([1]; Dose 3 (μM)): >90% | Survival % With Anti-Fas [1, 5]: 2% | Survival % Without Anti-Fas ([1]; Dose 10 (μM)): 0%

Cc1cc2ccccc2n1C1=C(c2cn(CCCSC(=N)N)c3ccc(OCc4ccccc4)cc23)C(=O)NC1=O [Example 150, 3-(3-((amidiothio)propyl)-5-benzyloxyindol-3-yl)-4-(2-methylindol-1-yl)-pyrrole-2,5-dione]
Survival % Without Anti-Fas ([1]; Dose 3 (μM)): >90% | Survival % With Anti-Fas [1, 5]: 5% | Survival % Without Anti-Fas ([1]; Dose 10 (μM)): 0%

N=C(N)SCCCn1cc(C2=C(N3CCc4ccccc43)C(=O)NC2=O)c2ccccc21 [Example 159, 3-(3-((amidiothio)propyl)indol-3-yl)-4-(indolin-1-yl)-pyrrole-2,5-dione]
Survival % Without Anti-Fas ([1]; Dose 3 (μM)): >90% | Survival % With Anti-Fas [1, 5]: 10% | Survival % Without Anti-Fas ([1]; Dose 10 (μM)): 17%

Cn1cc(C2=C(n3cc(CCCSC(=N)N)c4ccccc43)C(=O)NC2=O)c2ccccc21 [Example 167]
Survival % Without Anti-Fas ([1]; Dose 0.3 (μM)): 98% | Survival % With Anti-Fas [1, 3]: 43% | Survival % Without Anti-Fas ([1]; Dose 1 (μM)): 88% | Survival % With Anti-Fas [1, 4]: 17% | Survival % Without Anti-Fas ([1]; Dose 3 (μM)): 50% | Survival % With Anti-Fas [1, 5]: 5% | Survival % Without Anti-Fas ([1]; Dose 10 (μM)): 0% | Survival % With Anti-Fas [1, 6]: 0% | Survival % Without Anti-Fas ([1]; Dose 30 (μM)): 0% | Survival % With Anti-Fas [1, 7]: 0% | IC50 (Human lung H460 cells): ~3 µM
